The values below come from patent US8110654B2, “T cell epitope peptides of ovarian cancer anti-idiotypic antibody 6B11 and use thereof” (Peking University People;s Hospital, priority 2006, dated 2012).

Assay [1] concerns anti-idiotype antibody 6B11-CTLs (reacting cells). Put plainly: BrdU ELISA cell proliferation assay, 6B11-CTLs stimulated by loaded DCs. It is filed as cell-based, human. The settings on record: for proliferation after blocking by MHC class II antibodies: anti-human MHC class II antibodies 1:20 dilution; for proliferation of reacting cells 6B11-CTLs: stimulating DCs loaded with peptide 30 μg/ml or 6B11 40 μg/ml, 120 hours, BrdU, A450. As for the experimental part:
Peripheral blood was drawn from HLA-A2 healthy human subjects. After EDTA anti-coagulation treatment, peripheral blood monocytes were isolated using Ficoll lymphocyte isolation 1×10^7 monocytes/well and AIM-V culture medium (containing 5% human AB serum) was added to 1 ml. The cells were incubated at 37° C. under 5% CO2 for 2 hours. Non-adherent cells were drawn and removed as lymphocytes and stored in liquid nitrogen for further use. The adherent cells were monocytes.
The monocytes isolated from said 6-well plates were added with 2 ml AIM-V culture medium (containing 5% human AB serum)/well. Recombinant human granulocyte-macrophage colony-stimulating factor (rh GM-CSF) and recombinant human interleukin-4 (rh IL-4) were added simultaneously both to a final concentration of 1000 U/ml, for induced incubation. On Day 4, 1 ml AIM-V culture medium (containing 5% human AB serum) was supplemented, and rh GM-CSF and rh IL-4 of the same concentration as mentioned above were also supplemented. On Day 6, 1 ml AIM-V culture medium (containing 5% human AB serum) was supplemented again. At the same time, recombinant human tumor necrosis factor-α (rh TNF-α), recombinant human α-interferon (rh IFN-α) and recombinant human interleukin-6 (rh IL-6) were added, all to a final concentration of 1000 U/ml, and prostaglandin E2 (PGE2) was added to a final concentration of 1 μg/ml. Co-incubation lasted 24 hours for inducing mature DCs.
On Day 4 during incubation of DCs, the culture medium, rh GM-CSF and rh IL-4 were supplemented. At the same time, anti-idiotype antibody 6B11 was added to a final concentration of 40 μg/ml for loading. The loaded cells were stored as stimulating cells for further use.
Mature DCs induced were harvested, washed and adjusted to a concentration of 1×10^6 cells/ml. Six CDR peptides (SEQ ID NOs: 1-6, see Table 1, artificially synthesized) in a final concentration of 30 μg/ml respectively, or each peptide of 30 μg/ml together with keyhole limpet hemocyanin (KLH) of 5 μg/ml were added for loading. The loaded cells were stored as stimulating cells for further use.
The freeze-stored autologous lymphocytes were stimulated by DCs loaded with anti-idiotype antibody 6B11 (anti-Id DCs), to obtain CTLs specific to anti-idiotype antibody 6B11 (6B11-CTLs). One period consists of 7 days. On Day 3 of every period, 10 U/ml recombinant human interleukin-2 (rh IL-2) was supplemented. Finally, anti-idiotype antibody 6B11-CTLs were obtained after a one- or three-period stimulation.
All the CDR peptides of anti-idiotype antibody 6B11 (6 peptides) were synthesized artificially. The peptides were screened for Th epitope peptides by cell proliferation assay. Anti-idiotype antibody 6B11-CTLs stimulated for one period were used as reacting cells. DCs loaded with anti-idiotype antibodies and peptides respectively were used as stimulating cells. The reacting cells and the stimulating cells (in the ratio of 10:1) were co-incubated at 37° C. under 5% CO2 for 120 hours and then subject to BrdU ELISA cell proliferation assay. Each well contained 100 μl AIM-V culture medium and 1×10^5 anti-idiotype antibody 6B11-CTLs. Within the last 2 hours during stimulation, 10 μl BrdU labeling solution was added into each well and the fluid in the wells was removed. The cells were dried at 60° C. for 1 hour. 200 μl of FixDenat solution was added into each well. The reaction continued for 30 minutes at 37° C. for fixing DNA in the lymphocytes. Finally, 100 μl BrdU monoclonal antibody was added into each well for 90 minutes. The absorption value at 450 nm was read by an automatic microplate reader after substrate chromogenic reaction for detecting the proliferation of the cells. The group of DCs without loading and the group of phytohaemagglutinin (PHA) were used as negative and positive control respectively. […] Other peptides could not stimulate the proliferation of the reacting cells. […]

The subject of assay [2] is CD4 T cells derived from 6B11-CTLs. Description: Intracellular cytokines of CD4 T cells by flow cytometry. It is filed as cell-based, human. To be noted: 6B11-CTLs co-incubated with peptide-loaded DCs. As for the experimental part: The anti-idiotype antibody 6B11-CTLs were co-incubated respectively with DCs loading VH CDR3 peptides and DCs without loading. The production of intracellular cytokines in CD4 T cells derived from the anti-idiotype antibody 6B11-CTLs was detected by flow cytometry.

For the next assay, the target named is HLA-A2 (Homo sapiens, UniProt P04439, D140Y/D185E/D98H/E176V/E277Q/G131W/G231S/I119V/I121R/I166T/I218V/L300P/L318F/N151K/N90K/P208A/P217A/Q86G/Q94H/R138H/R169H/T345S). Description: T2 cell binding assay (HLA class I expression on T2 cells, confocal microscopy). As to T2 binding: key: +++: high binding capacity; ++: moderate binding capacity; +: low binding capacity. It is filed as cell-based. The method, then: The peptides obtained by […] method and the VH CDR1 and VL CDR2 region peptides were subject to T2 cell binding assay. T2 cells were co-incubated with each peptides in different concentrations (0.3 μg/ml, 3 μg/ml and 30 μg/ml) for 24 hours and then co-incubated with anti-human MHC class I antibodies. The expression profile of HLA class I molecules on the surface of T2 cells was analyzed by confocal microscopy. […] They were synthesized together with the CDR peptides of the anti-idiotype antibody for screening CTL epitope peptides.

Turning to “IALITTKIAWYFDV (VH CDR3 region peptide) [VH CDR3 peptide]”, in assay [1], the “proliferation after blocking by MHC class II antibodies” value was “could be blocked mostly” and the “proliferation of reacting cells 6B11-CTLs” value is reported as “could stimulate the proliferation”. Further, in assay [2], the “IFN-γ secretion by CD4 T cells” value is listed as “high level” and the “IL-4 level in CD4 T cells” value is listed as “low level”.
For the sequence SQSTHFPYT (VL CDR3 region peptide), the “binding capacity in T2 cell binding assay (in words)” value with HLA-A2 (T2 cells co-incubated with peptide 24 hours) is “moderate binding capacity”. Further, the T2 binding result with HLA-A2 (T2 cells co-incubated with peptide (0.3, 3, 30 μg/ml) 24 hours, HLA class I surface expression) was “++”. In assay [1], the “proliferation after blocking by MHC class II antibodies” value is recorded as “could not be blocked” and the “proliferation of reacting cells 6B11-CTLs” value is “could stimulate the proliferation”.
